# In patent US7820703B2, “Lysophosphatidic acid receptor selective antagonists” (University of Virginia Patent Foundation, priority 2004, dated 2010):
# “Also recorded” adds a separate entry of the source.
# Key:
# LPA1 receptor = target: T1, LPA1 receptor (Mus musculus, UniProt P61793); assay: antagonism of LPA-evoked GTP[γ35S] binding at LPA1; type: biochemical; conditions: GTP[γ35S] binding
# T1 construct: expressed in transfected cells; host or cells: HEK293T cells (membranes)
# Method: (§1) The appropriate receptor plasmid DNA (encoding mouse LPA1, human LPA2 or human LPA3) was mixed with equal amounts of expression plasmids (pcDNA3) encoding a mutated (C351F) rat Gi2a, cow β1, and γ2 proteins and these DNAs were used to transfect monolayers of HEK293T cells (where ‘T’ indicates expression of the SV-40 virus large T antigen) using the calcium phosphate precipitate method. After about 60 hours, cells were harvested, membranes were prepared, aliquoted and stored at −70° C. until use.
# (§2) The GTP[35 γS] assay was performed as described by us previously. Membranes containing 5 ug of protein were incubated in 0.1 ml GTP-binding buffer (in mM: HEPES 50, NaCl 100, MgCl2 10, pH7.5) containing […], […], 0.1 nM GTP[35 γS] (1200 Ci/mmol), and indicated lipid(s) for 30 minutes at 30° C. Samples were analyzed for membrane-bound radionuclide using a Brandel Cell Harvester (Gaithersburg, Md.).
# The X-intercept of the linear transformation is equal to the inverse log of the KI.
# All compounds were characterized by ^1H and ^13C NMR, mass spectroscopy and, in certain cases, elemental analysis. A GTP[γ35S] binding assay was adapted to assess in vitro activity.
# All compounds were characterized by ^1H and ^13C NMR, mass spectroscopy and, in most cases, C, H, N analyses. A membrane-based GTP[γ^35S] binding assay was adapted to assess in vitro activity at the LPA1 and LPA3 receptors.
# LPA receptors = assay: whole cell assays of calcium mobilization or inhibition of cAMP accumulation, agonist activity; type: cell-based
# Method: (§3) Assays for cAMP accumulation were conducted on populations of 5×10^5 cells stimulated with […] in the presence of the phosphodiesterase inhibitor isomethylbutylxanthine (IBMX) for 15 minutes at 30° C. cAMP was measured by automated radioimmunoassay.
# A FLIPR™ (Molecular Devices, Inc.) was used to measure intracellular calcium in A431 and HEK293T cells. A431 cells were seeded (˜50,000 cells/well) in 96-well clear bottom black microplates (Corning Costar Corp., Cambridge, Mass.) and left overnight in CO2 incubator at 37° C. HEK293T cells were treated likewise, but seeded onto poly D-lysine coated microplates (Becton Dickinson, Franklin Lakes, N.J.). A431 cells were dye-loaded with 4 μM Fluo-3 AM ester (Molecular Probes Inc., Eugene, Oreg.) in a loading buffer (1×HBSS buffer, pH 7.4, containing 20 mM HEPES, 0.1% BSA, and 2.5 mM probenecid) for 1 hour at 37° C. Cells were then washed four times with the loading buffer and exposed in the FLIPR™ to sets of compounds. HEK293T cells were loaded with 2 μM Fluo-4 AM ester (Molecular Probes Inc., Eugene, Oreg.) in the same loading buffer without probenecid for 30 minutes and washed four times before being exposed to compounds in the FLIPR™. […]
# The same activity was determined with human LPA1 using a recombinant baculovirus-infected insect Sf9 cell membrane preparation.
# Xenopus laevis ooctyes = assay: chloride conductance in Xenopus laevis oocytes, endogenous receptor; type: cell-based
# Method: (§4) wls-b8L and the other phosphonates were also tested also for activity in three whole cell assays. […] Finally, the activity of wls-b8L in activating a chloride conductance in Xenopus laevis ooctyes was measured.
# human platelets = assay: aggregation of human platelets; type: cell-based; conditions: concentrations up to 10 micromolar
# Source text: wls-b8L is expected to be resistant to hydrolysis by phosphohydrolases by virtue of its containing a phosphonate, rather than a phosphate, group. Furthermore this chemical entity (wls-b8L) has two additional desirable properties.
# mouse LPA1 [1] = target: T2, mouse LPA1 (Mus musculus, UniProt P61793); assay: cAMP accumulation in RH7777 cells expressing LPA1; type: cell-based; design: expressed in transfected cells; conditions: concentration of 1 μM
# Method: as §3
# Rat hepatoma RH7777 cell monolayers were transfected with the mLPA1 plasmid DNA using the calcium phosphate precipitate method and clonal populations expressing the neomycin phosphotransferase gene were selected by addition of geneticin (G418) to the culture media. The RH7777 cells were grown in monolayers at 37° C. in a 5% CO02/95% air atmosphere in growth media consisting of: 90% MEM, 10% fetal bovine serum, 2 mM glutamine and 1 mM sodium pyruvate.
# as §4
# mouse LPA1 [2] = target: T2, mouse LPA1; assay: GTP[γ35S] binding assay, agonist activity at LPA1; type: biochemical; design: expressed in transfected cells; host or cells: HEK293T cells (membranes)
# Method: as §1
# as §2, with “Md.). The C351F mutation renders the Gi2α protein resistant to inactivation by pertussis toxin or the alkylating agent N-ethylmaleimide; however in practice background binding was sufficiently low to obviate these maneuvers.” for “Md.).”
# (§5) This assay isolates each recombinant LPA receptor and allows analysis of all three receptors using the same system.
# (§6) Membranes prepared from these cells are used to measure GTPγ[^35S] binding as a function of test compound concentration. The resulting dose-response curves provide relative potency (EC50) and efficacy (Emax) for the test compounds.
# human LPA3 [3] = target: T3, human LPA3 (Homo sapiens, UniProt Q9UBY5); assay: chloride conductance in Xenopus oocytes injected with human LPA3 mRNA; type: cell-based; design: expressed in transfected cells; host or cells: Xenopus laevis oocytes injected with mRNA; conditions: 10 μM applied to the oocyte surface
# T3 sequence (Q9UBY5 1-353): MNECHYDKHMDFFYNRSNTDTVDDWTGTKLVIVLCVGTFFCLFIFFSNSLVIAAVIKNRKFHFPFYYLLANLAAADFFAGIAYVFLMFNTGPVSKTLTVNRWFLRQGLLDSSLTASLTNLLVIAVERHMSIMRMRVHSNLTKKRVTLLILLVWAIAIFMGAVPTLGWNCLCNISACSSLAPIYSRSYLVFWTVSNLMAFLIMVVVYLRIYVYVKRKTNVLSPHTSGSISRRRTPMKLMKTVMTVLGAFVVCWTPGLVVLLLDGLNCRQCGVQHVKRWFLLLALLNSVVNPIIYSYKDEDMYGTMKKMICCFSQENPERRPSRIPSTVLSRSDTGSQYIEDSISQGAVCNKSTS
# Method: as §4
# human LPA2 [4] = target: T4, human LPA2 (Homo sapiens, UniProt Q9HBW0); assay: chloride conductance in Xenopus oocytes injected with human LPA2 mRNA; type: cell-based; design: expressed in transfected cells; host or cells: Xenopus laevis oocytes injected with mRNA; conditions: 10 μM applied to the oocyte surface
# Method: as §4
# LPP1 (PAP2a) = target: T5, LPP1 (PAP2a) (Homo sapiens, UniProt O14494); assay: LPP inhibition, competition with [32P]LPA, LPP1; type: biochemical; conditions: competition with 50 nM [32P]LPA
# T5 sequence (O14494 1-284): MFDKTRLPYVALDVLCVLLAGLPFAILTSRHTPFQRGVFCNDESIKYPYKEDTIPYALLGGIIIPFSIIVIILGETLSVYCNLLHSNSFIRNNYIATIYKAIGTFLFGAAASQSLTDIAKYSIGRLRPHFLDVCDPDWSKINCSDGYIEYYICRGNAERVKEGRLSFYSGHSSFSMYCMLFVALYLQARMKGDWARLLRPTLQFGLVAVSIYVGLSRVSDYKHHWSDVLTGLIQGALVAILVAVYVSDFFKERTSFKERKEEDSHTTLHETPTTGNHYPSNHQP
# Method: (§7) NOHPP was also tested for activity at the three cloned LPPs. Although the phosphonate head group eliminates the possibility of NOHPP acting as a substrate, it is possible that the compound could be a competitive inhibitor.
# LPP3 (PAP2b) = target: T6, LPP3 (PAP2b) (Homo sapiens, UniProt O14495); assay: LPP inhibition, competition with [32P]LPA, LPP3; type: biochemical; conditions: competition with 50 nM [32P]LPA
# T6 sequence (O14495 1-311): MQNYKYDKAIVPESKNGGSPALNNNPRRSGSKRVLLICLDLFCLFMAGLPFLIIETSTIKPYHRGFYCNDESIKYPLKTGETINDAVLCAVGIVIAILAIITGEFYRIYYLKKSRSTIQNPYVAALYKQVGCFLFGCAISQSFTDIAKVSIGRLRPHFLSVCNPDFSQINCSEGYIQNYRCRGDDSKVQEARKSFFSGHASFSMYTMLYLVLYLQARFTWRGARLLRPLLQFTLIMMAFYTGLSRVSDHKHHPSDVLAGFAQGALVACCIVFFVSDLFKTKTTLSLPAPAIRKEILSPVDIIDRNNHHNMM
# Method: as §7
# human LPA2 [5] = target: T4, human LPA2; assay: GTP[γ35S] binding assay, agonist activity at LPA2; type: biochemical; design: expressed in transfected cells; host or cells: HEK293T cells (membranes)
# Method: as §1, §2, §6
# human LPA3 [6] = target: T3, human LPA3; assay: GTP[γ35S] binding assay, agonist activity at LPA3; type: biochemical; design: expressed in transfected cells; host or cells: HEK293T cells (membranes)
# Method: as §1
# as §2, with “Md.). The C351F mutation renders the Gi2α protein resistant to inactivation by pertussis toxin or the alkylating agent N-ethylmaleimide; however in practice background binding was sufficiently low to obviate these maneuvers.” for “Md.).”
# as §5, §6
# human LPA2 [7] = target: T4, human LPA2; assay: antagonism of LPA-evoked GTP[γ35S] binding at LPA2; type: biochemical; design: expressed in transfected cells; host or cells: HEK293T cells (membranes)
# Method: as §1
# as §2, with “Md.). The C351F mutation renders the Gi2α protein resistant to inactivation by pertussis toxin or the alkylating agent N-ethylmaleimide; however in practice background binding was sufficiently low to obviate these maneuvers.” for “Md.).”
# All compounds were characterized by ^1H and ^13C NMR, mass spectroscopy and, in certain cases, elemental analysis. A GTP[γ35S] binding assay was adapted to assess in vitro activity. […] The Ki values as determined by Schild regression are shown for the LPA1 receptor. […]
# T2 sequence (P61793 whole entry): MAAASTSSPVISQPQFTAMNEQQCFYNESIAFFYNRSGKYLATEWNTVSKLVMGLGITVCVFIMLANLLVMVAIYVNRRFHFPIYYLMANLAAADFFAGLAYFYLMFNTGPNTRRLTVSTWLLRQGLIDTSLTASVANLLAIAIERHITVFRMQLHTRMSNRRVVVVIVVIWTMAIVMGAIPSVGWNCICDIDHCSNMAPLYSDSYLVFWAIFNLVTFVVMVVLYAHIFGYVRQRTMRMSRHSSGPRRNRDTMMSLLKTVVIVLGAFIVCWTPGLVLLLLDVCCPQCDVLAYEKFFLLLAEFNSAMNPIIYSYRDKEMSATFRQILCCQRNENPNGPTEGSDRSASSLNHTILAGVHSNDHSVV
# T4 sequence (Q9HBW0 whole entry): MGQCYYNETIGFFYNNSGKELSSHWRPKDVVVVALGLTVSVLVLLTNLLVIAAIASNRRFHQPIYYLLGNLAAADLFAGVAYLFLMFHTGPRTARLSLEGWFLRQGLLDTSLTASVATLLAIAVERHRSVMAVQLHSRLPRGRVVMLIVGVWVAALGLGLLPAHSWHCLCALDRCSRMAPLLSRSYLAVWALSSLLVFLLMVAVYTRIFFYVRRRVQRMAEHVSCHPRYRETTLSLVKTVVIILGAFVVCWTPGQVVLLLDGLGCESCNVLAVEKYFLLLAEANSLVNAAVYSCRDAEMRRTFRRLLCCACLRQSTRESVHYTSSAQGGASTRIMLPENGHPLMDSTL
# T1 sequence (P61793 whole entry): as the sequence (P61793 whole entry) above
smiles,measurement,setting,value
CCCCCCCC/C=C\CCCCCCCC(=O)N[C@@H](COP(=O)(O)O)Cc1ccccc1 [VPC12084],"antagonist activity at LPA1, in words",LPA1 receptor,did block LPA activity
same,agonist activity in whole cell assays,LPA receptors,appreciable agonist activity
"CCCCCCCC/C=C\CCCCCCCC(=O)NCCCP(=O)(O)O [wls-b8L, (9Z)-N-(3-phosphonopropyl)octadec-9-enamide]","activating a chloride conductance, endogenous receptor",Xenopus laevis ooctyes,does not evoke this response
same,aggregation of human platelets,human platelets,does not elicit aggregation
same,"inhibition of cAMP accumulation, efficacy",mouse LPA1 [1],fully efficacious
same,"agonist activity at LPA1, in words",mouse LPA1 [2],more potent and efficacious at LPA1 than at either LPA2 or LPA3
same,"chloride conductance response, oocytes injected with human LPA3 mRNA",human LPA3 [3],very modest response
same,"chloride conductance response, oocytes injected with human LPA2 mRNA",human LPA2 [4],very modest response
"CCCCCCCC/C=C\CCCCCCCC(=O)NCCC(O)P(=O)(O)O (racemic) [NOHPP, (9Z)-N-(rac-3-hydroxy-3-phosphonopropyl)octadec-9-enamide]",inhibition of LPP1,LPP1 (PAP2a),to a lesser extent
same,inhibition of LPP3,LPP3 (PAP2b),inhibited
same,inhibition of LPP3,LPP3 (PAP2b); listed as VPC12031,markedly better at the PAP2b (LPP3) than PAP2a (LPP1)
same,"agonist activity at LPA1, in words",mouse LPA1 [2],"fully efficacious; also recorded: as efficacious as, but somewhat less potent than, LPA"
same,"agonist activity at LPA2, in words",human LPA2 [5],"fully efficacious; also recorded: as efficacious as, but somewhat less potent than, LPA"
same,"agonist activity at LPA3, in words",human LPA3 [6],little activity; also recorded: distinctly less potent and far less efficacious than LPA
CCCCCCCC/C=C\CCCCCCCC(=O)N[C@@H](COP(=O)(O)O)Cc1ccc(OCc2ccc(CCCCC)cc2)cc1 [VPC31162],"agonist activity at LPA1, in words",mouse LPA1 [2],agonist
same,"agonist activity at LPA3, in words",human LPA3 [6],agonist
same,"antagonist activity at LPA2, in words",human LPA2 [7],antagonist activity
